Source: patent US11510913B1, “Modulating expression level of a gene encoding an apurinic/apyrimidinic endodeoxyribonuclease protein by treating a human subject with a nitroxide” (priority 2021, dated 2022)

Tests used:
APEX1 [1] = assay: Treating human subjects with Tempol, serum level of APEX1 following treatment; assay type: in vivo; settings: 2000 mg per day for 180 days
Description: (§1) A 70-kilogram human subject over the age of 65 is identified as having, or known to have, or suspected of having an increased expression level of APEX1. The human subject is administered a dose of 2000 mg of Tempol (or another nitroxide antioxidant) per day for 180 days. This may be administered in a single dose, or may be administered as a number of smaller doses over a 24-hour period: for example, four 500-mg doses at […]. Following treatment, the serum level of APEX1, is decreased.
A 70-kilogram human subject is identified as having, or known to have, or suspected of having an increased expression level of APEX1. The human subject is administered a dose of 2000 mg of Tempol (or another nitroxide antioxidant) per day for 180 days. This may be administered in a single dose, or may be administered as a number of smaller doses over a 24-hour period: for example, four 500-mg doses at […]. Following treatment, the serum level of APEX1, is decreased.
as §1, with “65 and having a cardiovascular disease” for “65”, “for an increased expression level of APEX1. Or a 70-kilogram human subject over the age of 65 is” for “as having, or”, “have a cardiovascular disease and/or” for “have, or suspected of having an”
(§2) A 70-kilogram human subject at risk of developing colorectal cancer is identified for increased expression level of APEX1. Or a 70-kilogram human subject is known to be at risk of developing colorectal cancer and/or have increased expression level of APEX1. The human subject is administered a dose of 2000 mg of Tempol (or another nitroxide antioxidant) per day for 180 days. This may be administered in a single dose, or may be administered as a number of smaller doses over a 24-hour period: for example, four 500-mg doses at […]. Following treatment, the serum level of APEX1, is decreased.
as §2, with “of developing an autoimmune disease (e.g., rheumatoid arthritis) is identified” for “of developing colorectal cancer is identified”, “of developing an autoimmune disease and/or have” for “of developing colorectal cancer and/or have”
The human subject is administered a dose of 2000 mg of Tempol (or another nitroxide antioxidant) per day for 180 days. This may be administered in a single dose, or may be administered as a number of smaller doses over a 24-hour period: for example, four 500-mg doses at […]. Following treatment, the serum level of APEX1, is decreased.
as §2, with “of developing a neurodegenerative disease (e.g., Parkinson's Disease) is identified” for “of developing colorectal cancer is identified”, “of developing a neurodegenerative disease and/or have” for “of developing colorectal cancer and/or have”, “is decreased. […]” for “is decreased.”

APEX1 [2] = assay: Effects of Tempol on gene expression in cardiac tissue of mice, chip-based microarray; assay type: in vivo
Description: To assess the effects of Tempol on gene expression, Tempol was administered to experimental mice at a dose of 5 mg/g of food from 14 months to 31 months after birth. Mice receiving the same food without the addition of Tempol were used as a negative control. At the age of 31 months, the experimental animals were sacrificed and the hearts were surgically removed. The expression of a broad spectrum of genes in the cardiac tissue was assessed using chip-based microarray technology. Such chips are well known in the art and are widely used to assess gene expression.

CC1(C)CC(O)CC(C)(C)N1[O] [Tempol, 4-hydroxy-2,2,6,6-tetramethylpiperidine-1-oxyl]
serum level of APEX1 (APEX1 [1]; Example 2: 70-kilogram human subject over the age of 65 with increased expression level of APEX1): decreased | serum level of APEX1 (APEX1 [1]; Example 3: 70-kilogram human subject with increased expression level of APEX1): decreased | serum level of APEX1 (APEX1 [1]; Example 4: human subject over the age of 65 having a cardiovascular disease): decreased | serum level of APEX1 (APEX1 [1]; Example 5: human subject at risk of developing colorectal cancer): decreased | serum level of APEX1 (APEX1 [1]; Example 6: human subject at risk of developing an autoimmune disease (e.g., rheumatoid arthritis)): decreased | serum level of APEX1 (APEX1 [1]; Example 7: human subject at risk of developing a condition due to aging): decreased | serum level of APEX1 (APEX1 [1]; Example 8: human subject at risk of developing a neurodegenerative disease (e.g., Parkinson's Disease)): decreased | serum level of APEX1 (APEX1 [1]; Example 9: human subject having an infection (e.g., bacterial, fungal, or viral)): decreased | Fold change (APEX1 expression) (APEX1 [2]; Tempol 5 mg/g of food from 14 months to 31 months after birth, cardiac tissue at 31 months, vs mice on same food without Tempol): −1.23 | expression of APEX1 in the cardiac tissue (APEX1 [2]; Tempol 5 mg/g of food from 14 to 31 months after birth, microarray): statistically significant decrease in expression
